According to US6893829B2, “Human leukocyte 12-lipoxygenase and its role in the pathogenesis of disease states” (City of Hope, priority 1992, dated 2005):

Tests used:
ERK = ERK activity in CHO-AT1a cells; assay type: cell-based, Chinese hamster; details: AII 10^−7M
Procedure: ERK activity was evaluated by the substrate-SDS-polyacrylamide gel method described in Anal. Biochem., 183:139-143 (1989). Confluent cells in […] were made quiescent in serum-free medium and then treated with agonists for various time periods. The cells were then lysed in lysis buffer (1% NP40, 1% sodium deoxycholate, 0.1% SDS, 100 mM NaCl, 50 mM Tris, 10 mM EDTA, 1 mM EGTA, aprotinin, […], 0.1 mM PMSF and 1 mM sodium orthovanadate, pH 7.4). Lysates were centrifuged to pellet nuclei and the cell extracts ([…]) were subjected to electrophoresis on SDS-polyacrylamide gels (10%) containing myelin basic protein (0.5 mg/ml) as an ERK substrate. The SDS was then washed, followed by denaturation, renaturation and protein phosphorylation on the gel with [^32P] ATP.
(§1) It has been discovered that the administration of AII results in biphasic activation of MAP kinase (all of the MAP kinase experiments were conducted in CHO-AT1a cells—AII receptor AT1a cDNA transfected Chinese hamster ovary cells).

[1] = test system: leukocyte 12-LO protein in HSMC; experiment: 12-LO protein expression in HSMC (Western immunoblotting); assay type: cell-based, human
Procedure: FIGS. 4A and 4B illustrate the regulation of leukocyte 12-LO protein expression by AII in HSMC. FIG. 4A is an immunoblot showing regulation by AII. FIG. 4B is a bar graph representation of densitometric analysis of immunoblot in FIG. 4A. Cells were grown in medium 199 containing 20% FBS and serum-depleted for 24 hours by placing in medium 199 containing 0.4% FBS and 0.2% BSA. Cells were treated with AII at the concentration of 2×10^−7 mol/L for 24 to 48 hours. Cells were washed with PBS and harvested by scraping. Cell pellets were lysed and cytosol fractions were electrophoresed. […]
SDS polyacrylamide gel electrophoresis (10% running gel, 4% stacking gel) was performed according to the method of Laemmli (24). […] Nonspecific binding was evaluated using normal rabbit serum. Western blots were quantitated using a computerized video densitometer (Applied Imagining, Santa Clara, Calif.; Lynx DNA vision) and values expressed as arbitrary absorbance units.
To examine whether AII induces the 12-LO enzyme expression in HSMC, cells were treated with AII at the concentration of 2×10^−7 mol/L for 24 or 48 hours. […] A distinct band was detected with a molecular weight of nearly 72 kD which is the reported molecular weight of the porcine leukocyte-type of 12-LO (FIG. 4). […]

PAK = PAK activity in CHO-AT1a cells; assay type: cell-based, Chinese hamster; details: AII 10^−7M, 30 minutes
Procedure: Cell lysis and PAK activity measurement were performed as described in Science, 269:221-223 (1995). Cells were lysed on ice in 50 mM Tris-HCl, 150 mM NaCl, 5 mM EGTA, 50 mM NaF, 10 mM Na pyrophosphate, 1% NP-40, 2.5% glycerol, and 1 mM Na3VO4 (pH 7.5), containing protease inhibitors PMSF, leupeptin and aprotinin. Cell were centrifuged for 10 minutes at 1000 g. For immunoprecipitation, the supernatants were incubated with anti-PAK1 or anti-PAK2 antibody (1:25) (Dept. Immuno. & Cell Biology, Scripps Res. Instit., La Jolla, Calif.) for 2 hours at 4° C. followed by incubation with 60 μl of 1:1 protein A beads for 60 minutes, then 5×1.0 ml lysis buffer washes and 2 washes with kinase buffer (50 mM HEPES, pH 7.5, 10 mM MgCl2 0.2 mM dithiothreitol, 2 μg myelin basic protein and 14 Mμ [r-^32P] ATP) for 20 minutes at 30° C. The reaction was stopped with SDS sample buffer, and results were visualized by SDS-PAGE and autoradiography.
as §1

Angiotensin II (DRVYIHPF; Angiotensin-2; UniProt P01019 25-32, looked up) [AII, peptide hormone, added to cells as stimulus]
stimulation of ERK activity, later peak (ERK; 3-4.5 hours): 1.5-3 fold | stimulation of ERK activity, first peak (ERK; 5 minutes): 2-6 fold | increase in 12-LO protein expression ([1]; AII 2×10^−7 mol/L, 24 hour, serum free media): seven | 12-LO expression induction ([1]; AII, 48 hours, data not shown): 4-7 fold | stimulation of PAK, major peak (PAK): 5 fold
